From patent US20250375465A1, “METHODS FOR AFFECTING TISSUE-RESIDENT T CELLS” (THE TRUSTEES OF THE UNIVERSITY OF PENNSYLVANIA, priority 2024, published 2025)
Entries after “also recorded” stand apart in the source; their conditions may differ.

How the values were obtained:
primary human T cells = experiment: Kill curve in primary human (circulating) T cells, celltiter glow viability assay (FIG. 6C); assay type: cell-based; conditions: for apoptosis / killing of primary human T cells: FIG. 6C, 3 days incubation
Description: (Data extracted from J Clin Invest. 2022; 132 (16): e153514). FIG. 6C: in contrast to the AML cells, circulating T cells required about 100-fold higher dose of the GSPT-1 degrader to be depleted. The GSPT-1 degrader used in FIG. 6C is C90009, the same drug as in FIGS. 6A-6B. Blue curve: kill curve with MRT-2359. Primary human T cells were incubated with indicated doses for 3 days followed by viability quantification using a standard celltiter glow assay. Survival was quantified relative to T cells from the same donor treated with DMSO.

GSPT1 = target: T1, GSPT1 (Homo sapiens, UniProt P15170+Q96SW2); experiment: Western blot of GSPT1 protein in primary human T cells after degrader treatment (FIGS. 13A-13B); assay type: cell-based; conditions: primary human peripheral blood T cells, 24 hours in vitro, compared to DMSO control
T1 construct: GSPT1 protein in primary human T cells isolated from peripheral blood; endogenous in cells; host or cells: primary human T cells from peripheral blood of normal donors
Description: FIGS. 13A-13B illustrate degradation of GSPT1 in primary human T cells using CC-90009 and MRT-2359. FIG. 13A is a Western blot analysis of GSPT1 protein in primary human T cells isolated from peripheral blood. T cells were treated with indicated concentrations of GSPT1 degrader for 24 hours in vitro. GSPT1 protein was detected with a monoclonal anti-GSPT1 antibody. FIG. 13B is a graph quantifying GSPT1 protein remaining after degrader treatment as shown in FIG. 13A compared to a DMSO negative control.
(§1) Given that GSPT1-degrading small-molecules are already advancing through early-phase trials for cancer, it was tested whether targeting GSPT1 could selectively affect TRM in vitro. TRM were isolated from healthy human skin (n=6) and their sensitivity was to the GSPT1-degrading drug CC-90009 with that of human blood T cells. […] In a similar study, another small molecule GSPT1 degrader, MRT-2359, was used to treat peripheral blood T cells from normal human donors for 24 hours in vitro at various concentrations.

[1] = tested on: TRM isolated from healthy human skin; experiment: Viability of skin TRM versus blood T cells after GSPT1 degrader treatment (FIG. 10D); assay type: cell-based; conditions: 72 hours of treatment, n=6
Description: as §1

[2] = tested on: acute myeloid leukemia (AML) cells; conditions: FIG. 6A; data extracted from J Clin Invest. 2022; 132 (16): e153514; cited from earlier work
primary leukemia cells = conditions: FIG. 6B; data extracted from J Clin Invest. 2022; 132 (16): e153514; cited from earlier work

T1 sequence (P15170 whole entry): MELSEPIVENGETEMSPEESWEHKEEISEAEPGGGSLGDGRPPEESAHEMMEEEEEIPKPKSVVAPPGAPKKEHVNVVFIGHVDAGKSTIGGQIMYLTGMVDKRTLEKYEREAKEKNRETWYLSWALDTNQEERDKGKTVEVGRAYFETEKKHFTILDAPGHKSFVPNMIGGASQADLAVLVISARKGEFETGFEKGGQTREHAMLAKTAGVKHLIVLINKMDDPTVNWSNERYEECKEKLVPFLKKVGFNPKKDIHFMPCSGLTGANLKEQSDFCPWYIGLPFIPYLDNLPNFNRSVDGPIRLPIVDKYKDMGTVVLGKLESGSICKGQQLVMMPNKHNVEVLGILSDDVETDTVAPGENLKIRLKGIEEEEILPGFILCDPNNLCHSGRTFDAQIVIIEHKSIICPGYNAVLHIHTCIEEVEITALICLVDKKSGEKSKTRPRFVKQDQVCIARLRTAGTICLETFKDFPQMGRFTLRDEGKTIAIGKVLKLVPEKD
T1 sequence (Q96SW2 whole entry): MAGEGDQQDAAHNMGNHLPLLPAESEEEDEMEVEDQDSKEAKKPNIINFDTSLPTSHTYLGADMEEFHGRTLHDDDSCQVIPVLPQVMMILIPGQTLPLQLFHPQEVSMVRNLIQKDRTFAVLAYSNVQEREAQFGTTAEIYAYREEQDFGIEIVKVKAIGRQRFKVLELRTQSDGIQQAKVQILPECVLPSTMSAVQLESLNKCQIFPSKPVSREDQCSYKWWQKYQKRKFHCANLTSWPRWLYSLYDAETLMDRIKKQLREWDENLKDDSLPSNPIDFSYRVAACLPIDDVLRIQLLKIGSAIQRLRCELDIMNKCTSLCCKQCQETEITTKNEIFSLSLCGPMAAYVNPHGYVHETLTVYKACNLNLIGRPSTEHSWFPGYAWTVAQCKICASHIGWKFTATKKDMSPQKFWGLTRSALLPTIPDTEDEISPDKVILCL
T1 sequence (Q16531 whole entry partner): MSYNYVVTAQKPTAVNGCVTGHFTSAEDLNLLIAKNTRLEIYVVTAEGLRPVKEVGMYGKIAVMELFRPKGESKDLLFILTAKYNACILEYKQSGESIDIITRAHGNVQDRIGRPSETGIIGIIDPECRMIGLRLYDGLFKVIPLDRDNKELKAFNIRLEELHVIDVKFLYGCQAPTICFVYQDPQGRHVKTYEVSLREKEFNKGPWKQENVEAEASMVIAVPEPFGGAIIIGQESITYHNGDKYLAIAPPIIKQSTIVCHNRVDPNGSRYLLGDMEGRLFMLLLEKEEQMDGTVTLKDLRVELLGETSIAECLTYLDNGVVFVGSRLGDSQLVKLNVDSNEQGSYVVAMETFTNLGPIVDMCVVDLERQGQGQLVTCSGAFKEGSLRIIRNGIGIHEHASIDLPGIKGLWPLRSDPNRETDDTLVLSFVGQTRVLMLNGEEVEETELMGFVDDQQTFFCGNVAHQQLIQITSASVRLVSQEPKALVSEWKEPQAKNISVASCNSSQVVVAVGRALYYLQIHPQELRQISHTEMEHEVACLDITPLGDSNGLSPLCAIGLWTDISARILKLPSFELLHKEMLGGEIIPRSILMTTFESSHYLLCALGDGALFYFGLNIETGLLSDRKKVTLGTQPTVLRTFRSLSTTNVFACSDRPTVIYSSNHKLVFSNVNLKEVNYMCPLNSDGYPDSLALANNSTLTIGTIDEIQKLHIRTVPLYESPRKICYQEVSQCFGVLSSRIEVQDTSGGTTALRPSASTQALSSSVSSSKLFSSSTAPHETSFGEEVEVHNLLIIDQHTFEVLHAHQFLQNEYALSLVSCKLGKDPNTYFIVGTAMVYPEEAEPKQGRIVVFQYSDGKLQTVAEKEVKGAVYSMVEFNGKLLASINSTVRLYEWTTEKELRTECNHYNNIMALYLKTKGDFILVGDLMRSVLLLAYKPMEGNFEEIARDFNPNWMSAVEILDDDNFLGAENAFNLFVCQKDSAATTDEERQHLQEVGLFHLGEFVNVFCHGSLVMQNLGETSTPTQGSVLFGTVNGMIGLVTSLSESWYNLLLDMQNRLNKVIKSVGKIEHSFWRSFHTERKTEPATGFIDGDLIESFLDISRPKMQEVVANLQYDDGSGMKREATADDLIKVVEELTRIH

## O=C1CCC(N2Cc3cc(CNC(=O)C(F)(F)c4ccc(Cl)cc4)ccc3C2=O)C(=O)N1 (stereo not drawn) [CC-90009]
Primary human T cells; FIG. 6C versus FIGS. 6A-6B
  dosage required for same level of apoptosis in primary (circulating) T cells versus cells of FIGS. 6A-6B: dramatically increased
Primary human T cells
  apoptosis / killing of primary human T cells: does apoptosis
Primary human T cells; primary human T cells incubated 3 days, survival relative to DMSO, compared with FIGS. 6A-6B
  dose required to deplete circulating T cells relative to AML cells: about 100 fold
GSPT1
  GSPT1 protein remaining after degrader treatment: significant dose-dependent loss of GSPT1 protein; also recorded: dose-dependent downregulation of GSPT1 protein
[1]
  viability of skin TRM compared with circulating T cells: reduced viability
[2]
  depletion / apoptosis of AML cells: dose-dependent apoptosis; also recorded: dose-dependent depletion
Primary leukemia cells
  depletion / apoptosis of primary leukemia cells: dose-dependent apoptosis; also recorded: dose-dependent depletion

## O=C1CCC(N2Cc3ccc(COC(=O)Nc4cc(OC(F)(F)F)ccc4F)cc3C2=O)C(=O)N1 (stereo not drawn) [MRT-2359]
Primary human T cells
  apoptosis / killing of primary human T cells: does apoptosis
GSPT1
  GSPT1 protein remaining after degrader treatment: significant dose-dependent loss of GSPT1 protein; also recorded: dose-dependent downregulation of GSPT1 protein
